This note sets out measurements from patent publication US9981944B2, “GDF-8 inhibitors” (Rigel Pharmaceuticals, Inc., priority 2015, dated 2018).

One assay has as its target HIS-TGFβR2 WT (Homo sapiens (Human), UniProt P37173). Nature of the assay: HTRF probe displacement assay, HIS-TGFβR2 WT. It counts as binding. As to conditions: 1 nM HIS-TGFβR2 WT, 1 hour at room temperature, read-out: TGFBR2WT IC50. The method, then: (§1) Compounds were dissolved at 10 mM in dimethylsulfoxide (DMSO) and evaluated at eleven concentrations. IC50 values were derived by non-linear regression analysis.
A general note: Time-resolved FRET reads energy transfer from a long-lived donor to a nearby acceptor.

The target of the next assay is HIS-TGFβR1 T204D (Homo sapiens (Human), UniProt P36897, T204D). The assay can be described thus: HTRF probe displacement assay, HIS-TGFβR1 T204D. It counts as binding. Particulars: 1 nM HIS-TGFβR1 T204D, 1 hour at room temperature, read-out: TGFBR1T204D IC50. The protocol: as §1

pIC50: −log10 of the molar value.

HIS-TGFβR1 T204D, sequence (P36897 34-503 T204D): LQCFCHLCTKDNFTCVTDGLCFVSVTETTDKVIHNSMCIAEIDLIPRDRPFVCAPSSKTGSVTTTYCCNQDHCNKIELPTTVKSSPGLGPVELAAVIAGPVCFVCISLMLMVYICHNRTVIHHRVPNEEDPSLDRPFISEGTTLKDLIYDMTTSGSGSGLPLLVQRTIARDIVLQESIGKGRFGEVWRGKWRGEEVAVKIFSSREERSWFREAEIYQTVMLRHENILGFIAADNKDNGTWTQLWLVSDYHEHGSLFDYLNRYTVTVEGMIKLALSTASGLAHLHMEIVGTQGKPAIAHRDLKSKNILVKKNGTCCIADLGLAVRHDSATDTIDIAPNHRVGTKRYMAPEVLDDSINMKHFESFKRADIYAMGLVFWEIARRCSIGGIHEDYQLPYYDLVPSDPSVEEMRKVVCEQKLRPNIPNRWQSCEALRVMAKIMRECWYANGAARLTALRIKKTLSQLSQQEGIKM
HIS-TGFβR2 WT, sequence (P37173 23-567): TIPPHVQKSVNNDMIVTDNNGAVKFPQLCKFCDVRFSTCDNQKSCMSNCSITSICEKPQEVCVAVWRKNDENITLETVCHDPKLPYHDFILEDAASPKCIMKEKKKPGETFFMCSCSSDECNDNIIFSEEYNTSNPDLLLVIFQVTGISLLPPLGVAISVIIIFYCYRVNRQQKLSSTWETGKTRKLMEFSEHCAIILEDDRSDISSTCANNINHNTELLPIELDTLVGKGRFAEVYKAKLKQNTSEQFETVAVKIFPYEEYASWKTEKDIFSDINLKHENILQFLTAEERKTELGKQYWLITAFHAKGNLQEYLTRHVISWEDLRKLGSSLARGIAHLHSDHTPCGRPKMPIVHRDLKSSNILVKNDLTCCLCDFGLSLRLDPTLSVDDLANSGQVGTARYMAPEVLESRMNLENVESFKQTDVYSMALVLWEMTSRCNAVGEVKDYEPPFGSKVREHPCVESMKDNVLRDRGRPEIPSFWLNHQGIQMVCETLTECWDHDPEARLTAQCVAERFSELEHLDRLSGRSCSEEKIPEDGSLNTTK

Broadly, the pIC50 is the IC50 on a negative log10 scale, so that one unit is a factor of ten. Turning to `Nc1ncnc2ccc(-c3cccnc3-c3cccc(C4CC4)n3)nc12` [Compound 106, 6-(6′-cyclopropyl-[2,2′-bipyridin]-3-yl)pyrido[3,2-d]pyrimidin-4-amine], the values for the pIC50 on HIS-TGFβR2 WT and on HIS-TGFβR1 T204D were < 4.82 and 8.40, respectively.
For the compound `Cc1cccc(-c2ncccc2-c2ccc3nc(C(N)=O)cn3c2)n1` [Compound 80, 6-(6′-methyl-[2,2′-bipyridin]-3-yl)imidazo[1,2-a]pyridine-2-carboxamide], the values for the pIC50 on HIS-TGFβR2 WT and on HIS-TGFβR1 T204D were < 4.82 and 5.99, respectively.
In the same order, the values of `Cc1nc(-c2ncccc2-c2ccc3ncc(C#N)n3c2)ccc1F` [Compound 15, 6-(5′-fluoro-6′-methyl-[2,2′-bipyridin]-3-yl)imidazo[1,2-a]pyridine-3-carbonitrile] are < 4.82 and 8.00.
In the same order, the values of `NC(=O)c1cnc2ccc(-c3cccnc3-c3ccc(F)cn3)nn12` [Compound 54, 6-(5′-fluoro-[2,2′-bipyridin]-3-yl)imidazo[1,2-b]pyridazine-3-carboxamide] are < 4.82 and 6.60.
The corresponding values for `CC(=O)Nc1cn2cc(-c3cccnc3-c3ccc(F)c(C)n3)ccc2n1` [Compound 77, N-(6-(5′-fluoro-6′-methyl-[2,2′-bipyridin]-3-yl)imidazo[1,2-a]pyridin-2-yl)acetamide] are < 4.82 and 8.40.
`N#Cc1cnc2ccc(-c3cccnc3-c3ccc(F)c(C(F)F)n3)cn12` [Compound 23, 6-(6′-(difluoromethyl)-5′-fluoro-[2,2′-bipyridin]-3-yl)imidazo[1,2-a]pyridine-3-carbonitrile]: the figures for the pIC50 at HIS-TGFβR2 WT and on HIS-TGFβR1 T204D were < 4.82 and 6.89, respectively.
In the case of `NC(=O)c1cnc2ccc(-c3cccnc3-c3cccc(C(F)F)n3)cn12` [Compound 29, 6-(6′-(difluoromethyl)-[2,2′-bipyridin]-3-yl)imidazo[1,2-a]pyridine-3-carboxamide], the pIC50 at HIS-TGFβR2 WT is < 4.82; at HIS-TGFβR1 T204D, 9.00.
The corresponding values for `CNC(=O)c1cnn2ccc(-c3cccnc3-c3cccc(C(F)(F)F)n3)nc12` [Compound 125, N-methyl-5-(6′-(trifluoromethyl)-[2,2′-bipyridin]-3-yl)pyrazolo[1,5-a]pyrimidine-3-carboxamide] are < 4.82 and 6.47.
Regarding `Fc1ccc(-c2ncccc2-c2ccc3nccn3c2)nc1C(F)F` [Compound 48, 6-(6′-(difluoromethyl)-5′-fluoro-[2,2′-bipyridin]-3-yl)imidazo[1,2-a]pyridine], the pIC50 at HIS-TGFβR2 WT is < 4.82; on HIS-TGFβR1 T204D, 7.59.
The corresponding values for `Cc1cccc(-c2ncccc2-c2ccc3ncc(C(=O)NC4COC4)n3n2)n1` [Compound 74, 6-(6′-methyl-[2,2′-bipyridin]-3-yl)-N-(oxetan-3-yl)imidazo[1,2-b]pyridazine-3-carboxamide] are < 4.82 and 6.97.
In the same order, the values of `Cc1ccc(-c2ccc3ncc(C(N)=O)n3c2)c(-c2cccc(C(F)F)n2)n1` [Compound 88, 6-(6′-(difluoromethyl)-6-methyl-[2,2′-bipyridin]-3-yl)imidazo[1,2-a]pyridine-3-carboxamide] are < 4.82 and 7.89.
In the same order, the values of `Cc1nc(-c2ncccc2-c2ccn3ncc(C(=O)NC4CC4)c3n2)ccc1F` [Compound 132, N-cyclopropyl-5-(5′-fluoro-6′-methyl-[2,2′-bipyridin]-3-yl)pyrazolo[1,5-a]pyrimidine-3-carboxamide] are < 4.82 and 7.44.
`N#Cc1cnc2ccc(-c3cccnc3-c3cccc(C4CC4)n3)cn12` [Compound 34, 6-(6′-cyclopropyl-[2,2′-bipyridin]-3-yl)imidazo[1,2-a]pyridine-3-carbonitrile]: the pIC50 is < 4.82 at HIS-TGFβR2 WT and 7.72 at HIS-TGFβR1 T204D.
Consider `N#Cc1cnc2ccc(-c3cccnc3-c3ccc(F)cn3)nn12` [Compound 53, 6-(5′-fluoro-[2,2′-bipyridin]-3-yl)imidazo[1,2-b]pyridazine-3-carbonitrile], for which the values for the pIC50 on HIS-TGFβR2 WT and on HIS-TGFβR1 T204D were < 4.82 and 6.22, respectively.
On to `CC(=O)Nc1ccc(-c2ccc3ncc(C(N)=O)n3c2)c(-c2cccc(C)n2)n1` [Compound 95, 6-(6-acetamido-6′-methyl-[2,2′-bipyridin]-3-yl)imidazo[1,2-a]pyridine-3-carboxamide], for which the pIC50 at HIS-TGFβR2 WT is < 4.82; on HIS-TGFβR1 T204D it was 6.45.
Turning to `NC(=O)c1cnc2ccc(-c3cccnc3-c3ccc(C(=O)O)cn3)cn12` [Compound 27, 3′-(3-carbamoylimidazo[1,2-a]pyridin-6-yl)-[2,2′-bipyridine]-5-carboxylic acid], the pIC50 on HIS-TGFβR2 WT was < 4.82; on HIS-TGFβR1 T204D it was 4.84.
The corresponding values for `CC(C)c1cccc(-c2ncccc2-c2ccc3ncc(C#N)n3c2)n1` [Compound 31, 6-(6′-isopropyl-[2,2′-bipyridin]-3-yl)imidazo[1,2-a]pyridine-3-carbonitrile] are < 4.82 and 6.51.
On to `Cc1cc(C)nc(-c2ncccc2-c2ccc3ncc(C(N)=O)n3c2)c1` [Compound 42, 6-(4′,6′-dimethyl-[2,2′-bipyridin]-3-yl)imidazo[1,2-a]pyridine-3-carboxamide], for which the pIC50 was < 4.82 at HIS-TGFβR2 WT and 7.68 on HIS-TGFβR1 T204D.
Take `Cc1cccc(-c2nccc(N)c2-c2ccc3ncc(C(N)=O)n3c2)n1` [Compound 101, 6-(4-amino-6′-methyl-[2,2′-bipyridin]-3-yl)imidazo[1,2-a]pyridine-3-carboxamide]: the values for the pIC50 at HIS-TGFβR2 WT and on HIS-TGFβR1 T204D were < 4.82 and 8.30, respectively.
The corresponding values for `COc1cccc(-c2ncccc2-c2ccc3ncc(C(N)=O)n3n2)n1` [Compound 51, 6-(6′-methoxy-[2,2′-bipyridin]-3-yl)imidazo[1,2-b]pyridazine-3-carboxamide] are < 4.82 and 7.68.
In the same order, the values of `N#Cc1cnc2ccc(-c3cccnc3-c3ccc(F)cn3)cn12` [Compound 20, 6-(5′-fluoro-[2,2′-bipyridin]-3-yl)imidazo[1,2-a]pyridine-3-carbonitrile] are < 4.82 and 6.99.
The corresponding values for `Cc1cccc(-c2ncccc2-c2ccn3ncc(C#N)c3n2)n1` [Compound 119, 5-(6′-methyl-[2,2′-bipyridin]-3-yl)pyrazolo[1,5-a]pyrimidine-3-carbonitrile] are < 4.82 and 7.23.
In the case of `Nc1ncnc2ccc(-c3cccnc3-c3cccc(C4CC4)n3)cc12` [Compound 111], the figures for the pIC50 on HIS-TGFβR2 WT and at HIS-TGFβR1 T204D were < 4.82 and 8.70, respectively.
In the same order, the values of `O=C(O)c1cnn2ccc(-c3cccnc3-c3cccc(C(F)(F)F)n3)nc12` [Compound 124, 5-(6′-(trifluoromethyl)-[2,2′-bipyridin]-3-yl)pyrazolo[1,5-a]pyrimidine-3-carboxylic acid] are < 4.82 and 6.86.
The corresponding values for `CC(C)c1cccc(-c2ncccc2-c2ccc3ncc(C#N)n3n2)n1` [Compound 63, 6-(6′-isopropyl-[2,2′-bipyridin]-3-yl)imidazo[1,2-b]pyridazine-3-carbonitrile] are < 4.82 and 5.71.
In the same order, the values of `Cc1cccc(-c2ncccc2-c2ccc3nccn3c2)n1` [Compound 47, 6-(6′-methyl-[2,2′-bipyridin]-3-yl)imidazo[1,2-a]pyridine] are < 4.82 and 8.52.
For `Nc1ncnc2ccc(-c3cccnc3-c3ccc(F)cn3)nc12` [Compound 104, 6-(5′-fluoro-[2,2′-bipyridin]-3-yl)pyrido[3,2-d]pyrimidin-4-amine], the pIC50 is < 4.82 on HIS-TGFβR2 WT and 7.38 on HIS-TGFβR1 T204D.
In the same order, the values of `Cc1cccc(-c2nc(C)ccc2-c2ccc3ncc(C#N)n3c2)n1` [Compound 86, 6-(6,6′-dimethyl-[2,2′-bipyridin]-3-yl)imidazo[1,2-a]pyridine-3-carbonitrile] are < 4.82 and 6.73.
The corresponding values for `Cc1cccc(-c2nccc(C(F)F)c2-c2ccc3ncc(C#N)n3c2)n1` [Compound 93, 6-(4-(difluoromethyl)-6′-methyl-[2,2′-bipyridin]-3-yl)imidazo[1,2-a]pyridine-3-carbonitrile] are < 4.82 and 4.82.
As to `CCOC(=O)c1cnn2ccc(-c3cccnc3-c3ccc(F)c(C)n3)nc12` [Compound 130, ethyl 5-(5′-fluoro-6′-methyl-[2,2′-bipyridin]-3-yl)pyrazolo[1,5-a]pyrimidine-3-carboxylate], the values for the pIC50 on HIS-TGFβR2 WT and on HIS-TGFβR1 T204D were < 4.82 and 7.85, respectively.
Turning to `CC(=O)c1cccc(-c2ncccc2-c2ccc3ncc(C#N)n3c2)n1` [Compound 40, 6-(6′-acetyl-[2,2′-bipyridin]-3-yl)imidazo[1,2-a]pyridine-3-carbonitrile], the pIC50 at HIS-TGFβR2 WT is < 4.82; on HIS-TGFβR1 T204D, 6.09.
Regarding `Cc1ccc(-c2ncccc2-c2ccc3ncc(C(N)=O)n3n2)nc1` [Compound 56, 6-(5′-methyl-[2,2′-bipyridin]-3-yl)imidazo[1,2-b]pyridazine-3-carboxamide], the pIC50 at HIS-TGFβR2 WT was < 4.82; on HIS-TGFβR1 T204D, 5.28.
`Cc1nc(-c2ncccc2-c2ccn3ncc(C(=O)O)c3n2)ccc1F` [Compound 131, 5-(5′-fluoro-6′-methyl-[2,2′-bipyridin]-3-yl)pyrazolo[1,5-a]pyrimidine-3-carboxylic acid]: the results for the pIC50 on HIS-TGFβR2 WT and at HIS-TGFβR1 T204D were < 4.82 and 6.68, respectively.
In the same order, the values of `COCCNC(=O)c1cnc2ccc(-c3cccnc3-c3cccc(C)n3)cn12` [Compound 70, N-(2-methoxyethyl)-6-(6′-methyl-[2,2′-bipyridin]-3-yl)imidazo[1,2-a]pyridine-3-carboxamide] are < 4.82 and 8.40.
Consider `COc1cccc(-c2ncccc2-c2ccc3ncc(C#N)n3c2)n1` [Compound 17, 6-(6′-methoxy-[2,2′-bipyridin]-3-yl)imidazo[1,2-a]pyridine-3-carbonitrile], for which the pIC50 on HIS-TGFβR2 WT was < 4.82; on HIS-TGFβR1 T204D, 8.05.
